The values below come from patent US12071424B2, “IRE1 small molecule inhibitors” (Cornell University, priority 2017, dated 2024).

The target of test [1] is T1, IRE1a (Homo sapiens, UniProt O75460).
T1 construct: purchased SignalChem
Briefly: In vitro FRET assay (IRE1a cleavage of XBP1 RNA probe). Format: biochemical. The settings on record: 2 nM SignalChem IRE1a, tested as Formic Acid Salt (37: HCl Salt). Put shortly:
Human

The subject of test [2] is IRE1a. Briefly: IRE1a Endoribonuclease Nanoluciferase Assay (XBP1 luciferase reporter in 293T cells). Format: cell-based, human. The settings on record: Homo sapiens, HEK-293T, ER stressor, tested as Formic Acid Salt (37: HCl Salt). The procedure: Compounds disclosed herein assessed for disruption of IRE1 signaling using a IRE1a Endoribonuclease Nanoluciferase Assay. Briefly, 25×10^5 293T cells were seeded in a 10 cm^2 tissue culture plate. About 24 hours later, the cells were transfected with Effectene. In a 15 mL tube, the following was added: 2 ug XBP1 luciferase reporter plasmid (PGK-Luc2-P2A-XBP1u-Nanoluciferase-Pest); 300 ul EC buffer; and 16 ul Enhancer, followed by incubation at room temp for 5 minutes. Next, 60 ul Effectene (Qiagen 301427) was added, followed by incubation at room temperature for 10 minutes. 2.6 mL cDMEM media was added. Old media was aspirated from the cells, followed by addition of 7 mL fresh media. Full transfection mixture was added dropwise to cells. Cells were incubated for 6 hours, followed by trypsinization, centrifugation and resuspension in 11 mL fresh cDMEM media. 100 uL of cells were plated per a well in a 96 well plate. A day later, ER stressors of choice +/−inhibitors were added. To harvest, media was aspirated from cells completely, then 50 uL 1× passive lysis buffer (Promega: E1941) was added per well and put on shaker (300 rpm) for 30 minutes at room temperature. Cells were centrifuged, and 15 uL sample per well was added to a new, opaque white 384 well plate (Corning 3570). 15 uL OneGlo (nanoluciferase kit, Promega N1630) was added. Plates were spun down, placed on shaker (300 rpm) for 10 minutes. Plates were read on luminometer, 1000 ms integration time per well. 15 uL Stop an Glo (nanoluciferase kit) was added. Plates were spun down, placed on shaker (300 rpm) for 10 minutes. Plates were read on luminometer, 1000 ms second integration time per well. Recordings are provided below in Table 4.

T1 sequence (O75460 19-977): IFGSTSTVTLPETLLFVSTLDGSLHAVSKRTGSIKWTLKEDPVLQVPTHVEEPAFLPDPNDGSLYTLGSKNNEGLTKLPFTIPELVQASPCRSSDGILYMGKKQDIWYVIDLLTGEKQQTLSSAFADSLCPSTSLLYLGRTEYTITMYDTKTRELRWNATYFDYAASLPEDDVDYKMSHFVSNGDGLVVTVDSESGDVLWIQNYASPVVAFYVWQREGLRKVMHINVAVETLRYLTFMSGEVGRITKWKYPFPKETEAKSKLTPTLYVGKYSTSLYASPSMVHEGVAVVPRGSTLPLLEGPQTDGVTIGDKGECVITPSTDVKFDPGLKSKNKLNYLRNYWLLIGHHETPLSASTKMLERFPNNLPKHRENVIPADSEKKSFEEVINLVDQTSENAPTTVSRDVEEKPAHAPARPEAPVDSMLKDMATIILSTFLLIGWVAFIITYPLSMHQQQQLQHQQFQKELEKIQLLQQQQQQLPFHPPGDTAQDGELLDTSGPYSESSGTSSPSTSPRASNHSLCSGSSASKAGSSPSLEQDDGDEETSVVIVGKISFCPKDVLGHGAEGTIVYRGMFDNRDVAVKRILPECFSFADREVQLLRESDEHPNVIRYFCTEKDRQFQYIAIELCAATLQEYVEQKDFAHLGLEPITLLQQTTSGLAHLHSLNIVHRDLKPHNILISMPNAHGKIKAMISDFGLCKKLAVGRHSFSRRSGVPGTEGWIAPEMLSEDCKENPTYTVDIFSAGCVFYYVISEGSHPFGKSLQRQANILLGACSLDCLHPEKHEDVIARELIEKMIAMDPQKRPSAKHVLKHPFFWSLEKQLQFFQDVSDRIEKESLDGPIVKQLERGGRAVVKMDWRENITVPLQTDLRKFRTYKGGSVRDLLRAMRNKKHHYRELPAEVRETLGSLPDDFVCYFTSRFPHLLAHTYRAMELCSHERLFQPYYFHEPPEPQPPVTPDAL

On to `CCc1cc(-c2ccc(NS(=O)(=O)c3ccccc3Cl)c(F)c2)cc2cnc(N[C@H]3CC[C@H](N4CCCC4)CC3)nc12` [Compound 88, 2-chloro-N-(4-(8-ethyl-2-(((1r,4r)-4-(pyrrolidin-1-yl)cyclohexyl)amino)quinazolin-6-yl)-2-fluorophenyl) benzenesulfon-amide], for which, in test [1], the concentration for half-maximal inhibition (IC50) is no more than 5 nM. Besides, the EC50 in test [2] was no more than 5 nM.

Take `N[C@H]1CC[C@H](Nc2ncc3cc(-c4nnc(NS(=O)(=O)c5ccccc5Cl)s4)ccc3n2)CC1` [Compound 89, N-(5-(2-(((1r,4r)-4-aminocyclohexyl)amino)quinazolin-6-yl)-1,3,4-thiadiazol-2-yl)-2-chlorobenzene-sulfonamide]: in test [1], the IC50 was no more than 5 nM. Further, the concentration giving a half-maximal response (EC50) in test [2] was in the range of 100 to 10000 nM.

Take `Cc1cc2nc(N[C@H]3CC[C@H](N)CC3)ncc2cc1-c1ccc(NS(=O)(=O)c2ccccc2Cl)c(F)c1` [Compound 90, N-(4-(2-(((1r,4r)-4-aminocyclohexyl)amino)-7-methylquinazolin-6-yl)-2-fluorophenyl)-2-chlorobenzene-sulfonamide]: the IC50 in test [1] was no more than 5 nM. The EC50 in test [2] was in the range of 5 to 50 nM.

Regarding `CCc1cc(-c2cnc(NS(=O)(=O)c3ccccc3Cl)cc2OC)cc2cnc(N[C@H]3CC[C@H](N)CC3)nc12` [Compound 92, N-(5-(2-(((1r,4r)-4-aminocyclohexyl)amino)-8-ethylquinazolin-6-yl)-4-methoxypyridin-2-yl)-2-chlorobenzene-sulfonamide], in test [1], the half-inhibitory concentration (IC50) is no more than 5 nM. Besides, in test [2], the EC50 was 100 to 10000 nM.

Turning to `CCc1cc(-c2cnc(NS(=O)(=O)c3ccccc3Cl)c(F)c2)cc2cnc(N[C@H]3CC[C@H](N(C)C)CC3)nc12` [Compound 95, 2-chloro-N-(5-(2-(((1r,4r)-4-(dimethylamino)cyclohexyl)amino)-8-ethylquinazolin-6-yl)-3-fluoropyridin-2-yl)benzenesulfonamide], the IC50 in test [1] was no more than 5 nM. Also, the concentration for a half-maximal effect (EC50) in test [2] was no more than 5 nM.

With `CCc1cc(-c2cc(F)c(NS(=O)(=O)c3ccccc3Cl)nc2C)cc2cnc(N[C@H]3CC[C@H](N(C)C)CC3)nc12` [Compound 97, 2-chloro-N-(5-(2-(((1r,4r)-4-(dimethylamino)cyclohexyl)amino)-8-ethylquinazolin-6-yl)-3-fluoro-6-methylpyridin-2-yl)benzenesulfonamide], in test [1], the half-maximal inhibitory concentration (IC50) was no more than 5 nM. Moreover, the concentration for a half-maximal effect (EC50) in test [2] was no more than 5 nM.

As for `CCc1cc(-c2ncc(NS(=O)(=O)c3ccccc3Cl)nc2OC)cc2cnc(N[C@H]3CC[C@H](N)CC3)nc12` [Compound 98, N-(5-(2-(((1r,4r)-4-aminocyclohexyl)amino)-8-ethylquinazolin-6-yl)-6-methoxypyrazin-2-yl)-2-chlorobenzenesulfonamide], the IC50 in test [1] was no more than 5 nM. Further, in test [2], the EC50 is no more than 5 nM.

Take `CCc1cc(-c2ccc(NS(=O)(=O)c3ccccc3Cl)nc2OC)cc2cnc(N[C@H]3CC[C@H](N(C)C)CC3)nc12` [Compound 99, 2-chloro-N-(5-(2-(((1r,4r)-4-(dimethylamino)cyclohexyl)amino)-8-ethylquinazolin-6-yl)-6-methoxypyridin-2-yl)benzenesulfonamide]: the concentration for half-maximal inhibition (IC50) in test [1] is no more than 5 nM. In test [2], the EC50 is no more than 5 nM.

For `COc1nc(NS(=O)(=O)c2ccccc2Cl)ccc1-c1cc2cnc(N[C@H]3CC[C@H](N(C)C)CC3)nc2cc1C` [Compound 108, 2-chloro-N-(5-(2-(((1r,4r)-4-(dimethylamino)cyclohexyl)amino)-7-methylquinazolin-6-yl)-6-methoxypyridin-2-yl)benzenesulfonamide], the IC50 in test [1] was no more than 5 nM. In addition, in test [2], the concentration for a half-maximal effect (EC50) was no more than 5 nM.

Consider `CCc1cc(-c2ccc(NS(=O)(=O)c3ccccc3Cl)nc2OC)cc2cnc(N[C@H]3CC[C@H](NC)CC3)nc12` [Compound 116, 2-chloro-N-(5-(8-ethyl-2-(((1r,4r)-4-(methylamino)cyclohexyl)amino)quinazolin-6-yl)-6-methoxypyridin-2-yl)benzenesulfonamide], for which the IC50 in test [1] was no more than 5 nM. Moreover, the EC50 in test [2] was no more than 5 nM.

Turning to `CCc1nc(NS(=O)(=O)c2ccccc2Cl)ccc1-c1cc(CC)c2nc(N[C@H]3CC[C@H](N(C)C)CC3)ncc2c1` [Compound 117, 2-chloro-N-(5-(2-(((1r,4r)-4-(dimethylamino)cyclohexyl)amino)-8-ethylquinazolin-6-yl)-6-ethylpyridin-2-yl)benzenesulfonamide], the IC50 in test [1] is no more than 5 nM. In addition, the EC50 in test [2] was no more than 5 nM.

As for `CCc1cc(-c2ccc(NS(=O)(=O)c3ccccc3C)nc2OC)cc2cnc(N[C@H]3CC[C@H](NC)CC3)nc12` [Compound 118, N-(5-(8-ethyl-2-(((1r,4r)-4-(methylamino)cyclohexyl)amino)quinazolin-6-yl)-6-methoxypyridin-2-yl)-2-methylbenzenesulfonamide], in test [1], the IC50 is no more than 5 nM. Also, the EC50 in test [2] was no more than 5 nM.

Consider `CCc1cc(-c2ccc(NS(=O)(=O)c3ccccc3C)nc2OC)cc2cnc(N[C@H]3CC[C@H](N(C)C)CC3)nc12` [Compound 119, N-(5-(2-(((1r,4r)-4-(dimethylamino)cyclohexyl)amino)-8-ethylquinazolin-6-yl)-6-methoxypyridin-2-yl)-2-methylbenzenesulfonamide], for which the concentration for half-maximal inhibition (IC50) in test [1] is no more than 5 nM. Further, the 50% effective concentration (EC50) in test [2] is no more than 5 nM.

As for `CCc1cc(-c2ccc(NS(=O)(=O)c3ccccc3Cl)nc2C)cc2cnc(N[C@H]3CC[C@H](NC)CC3)nc12` [Compound 122, 2-chloro-N-(5-(8-ethyl-2-(((1r,4r)-4-(methylamino)cyclohexyl)amino)quinazolin-6-yl)-6-methylpyridin-2-yl)benzenesulfonamide], the IC50 in test [1] was no more than 5 nM. Also, in test [2], the EC50 is no more than 5 nM.

As to `COc1nc(NS(=O)(=O)c2ccccc2Cl)ccc1-c1cc(C(C)(F)F)c2nc(N[C@H]3CC[C@H](N(C)C)CC3)ncc2c1` [Compound 124, 2-chloro-N-(5-(8-(1,1-difluoroethyl)-2-(((1r,4r)-4-(dimethylamino)cyclohexyl)amino)quinazolin-6-yl)-6-methoxypyridin-2-yl)benzenesulfonamide], in test [1], the IC50 is no more than 5 nM. The EC50 in test [2] is no more than 5 nM.

With `CCc1cc(-c2ccc(NS(=O)(=O)c3ccccc3Cl)nc2C)cc2cnc(N[C@H]3CC[C@H](N(C)CC)CC3)nc12` [Compound 125, 2-chloro-N-(5-(8-ethyl-2-(((1r,4r)-4-(ethyl(methyl)amino)cyclohexyl)amino)quinazolin-6-yl)-6-methylpyridin-2-yl)benzenesulfonamide], the half-maximal inhibitory concentration (IC50) in test [1] was no more than 5 nM. Further, in test [2], the EC50 was no more than 5 nM.

`CCc1cc(-c2cc(F)c(NS(=O)(=O)c3ccccc3Cl)nc2OC)cc2cnc(N[C@H]3CC[C@H](NC)CC3)nc12` [Compound 127, 2-chloro-N-(5-(8-ethyl-2-(((1r,4r)-4-(methylamino)cyclohexyl)amino)quinazolin-6-yl)-3-fluoro-6-methoxypyridin-2-yl)benzenesulfonamide]: in test [1], the IC50 was no more than 5 nM. Moreover, in test [2], the EC50 was no more than 5 nM.

As for `CCc1cc(-c2cc(F)c(NS(=O)(=O)c3ccccc3Cl)nc2OC)cc2cnc(N[C@H]3CC[C@H](N(C)C)CC3)nc12` [Compound 128, 2-chloro-N-(5-(2-(((1r,4r)-4-(dimethylamino)cyclohexyl)amino)-8-ethylquinazolin-6-yl)-3-fluoro-6-methoxypyridin-2-yl)benzenesulfonamide], in test [1], the half-inhibitory concentration (IC50) was no more than 5 nM. The concentration for a half-maximal effect (EC50) in test [2] is no more than 5 nM.
